In patent US11999739B2, “Antimicrobials methods of making and using the same” (BIOVERSYS AG, priority 2016, dated 2024):

Legend:
[1] = test system: Escherichia coli strain ATCC25922; assay: Standard microdilution MIC assay, E. coli; assay type: cell-based
Procedure: (§1) The in vitro activity of the compounds of the present disclosure can be determined. Antimicrobial testing is typically performed to determine the minimum inhibitory concentration (MIC). Minimum inhibitory concentrations (MICs) are determined by the microdilution method in a final volume of 100 μl according to protocols outlined by The Clinical and Laboratory Standards Institute (CLSI). Performance standards for reference strains are assessed within the same experimental design to maintain quality control. See, for example, Clinical Laboratory Standards Institute: Methods for dilution antimicrobial susceptibility tests for bacteria that grow aerobically M7-A8. Approved Standard-Eighth Edition. Wayne, PA: CLSI; December 2008; and Clinical Laboratory Standards Institute: Performance Standards for Antimicrobial Susceptibility Testing M100-S20; Approved Standard-Twentieth Edition. Wayne, PA: CLSI; June 2010.
(§2) The compounds of the present disclosure were tested for antimicrobial activity. The Compounds 1-293 were run against Escherichia coli (E co/i) strain ATCC25922 and against Staphylococcus aureus (S. aureus) 11540 strain using a standard microdilution assay to determine minimum inhibitory concentrations (MICs). […] It will be recognized by one skilled in the art that the compounds can be assessed against other bacterial organisms and that the presentation of data for activity against Escherichia coli and Staphylococcus aureus are illustrative and in no way is intended to limit the scope of the present disclosure. The compounds of the present disclosure can be assayed against a range of other microorganisms depending upon the performance activity desired to be gathered. Furthermore, the “+” and “−” representation and the selection of a cutoff value of 16 micrograms/mL is also illustrative and in no way is intended to limit the scope of the present disclosure.

[2] = test system: Staphylococcus aureus (S. aureus) 11540 strain; assay: Standard microdilution MIC assay, S. aureus; assay type: cell-based
Procedure: as §1, §2

Structure (SMILES) | MIC [1] [µg/mL] | MIC [2] [µg/mL]
COc1cc(-n2cc3cc(-c4cc(CCC[C@H](C)N)cc(Cl)c4F)[nH]c3nc2=O)cc(F)c1[C@@H]1CCC[C@@H](CCNC(C)=N)N1 [Compound 319] | ≤ 16 | ≤ 16
C[C@H](N)CCCc1cc(Cl)c(F)c(-c2cc3cn(-c4ccc(CN[C@@H](CO)CCNC(=N)CF)cc4)c(=O)nc3[nH]2)c1 [Compound 61] | ≤ 16 | ≤ 16
C=CC(CCNC(C)=N)NCc1ccc(-n2cc3cc(-c4cc(CCCC(C)(C)N)cc(Cl)c4F)[nH]c3nc2=O)cc1 (stereo not shown) [Compound 6] | ≤ 16 | ≤ 16
CC(=N)NCC[C@@H]1CCC[C@@H](c2ccc(-n3cc4cc(-c5cc(CCC[C@@H](N)C6CC6)cc(C(F)(F)F)c5)[nH]c4nc3=O)cc2F)N1CCCF [Compound 327] | ≤ 16 | ≤ 16
C=C[C@H](N)CCCc1cc(Cl)c(F)c(-c2cc3cn(-c4ccc([C@@H]5CCC[C@@H](CCNC(C)=N)N5)cc4)c(=O)nc3[nH]2)c1 [Compound 82] | ≤ 16 | ≤ 16
N=C(CF)NCC[C@@H]1CCC[C@@H](c2ccc(-n3cc4cc(-c5cc(CCC[C@@H](N)C(F)(F)F)cc(Cl)c5F)[nH]c4nc3=O)cc2)N1 [Compound 64] | ≤ 16 | ≤ 16
COC[C@H](N)CCCc1cc(-c2cc3cn(-c4ccc([C@@H]5CCC[C@@H](CCNC(C)=N)N5)c(SC)c4)c(=O)nc3[nH]2)cc(C(F)(F)F)c1 [Compound 202] | ≤ 16 | ≤ 16
CC(=N)NCC[C@@H]1COC[C@@H](c2ccc(-n3cc4cc(-c5cc(CCC(C)(C)CN)cc(Cl)c5F)[nH]c4nc3=O)cc2)N1 [Compound 71] | ≤ 16 | ≤ 16
C=C[C@H](N)CCCc1cc(Cl)c(F)c(-c2cc3cn(-c4ccc([C@H](C)N[C@@H](C=C)CCNC(C)=N)c(F)c4)c(=O)nc3[nH]2)c1 [Compound 184] | ≤ 16 | ≤ 16
C[C@H](N)CCCc1cc(Cl)c(F)c(-c2cc3cn(-c4ccc([C@@H](C)NCCCNC(=N)CF)c(F)c4)c(=O)nc3[nH]2)c1 [Compound 114] | ≤ 16 | ≤ 16
CC(=N)NCC[C@@H]1CCC[C@@H](c2ccc(-n3cc4cc(-c5cc(CCC[C@@H](N)CO)cc(OC(F)(F)F)c5F)[nH]c4nc3=O)cc2OC(F)(F)F)N1 [Compound 231] | ≤ 16 | ≤ 16
CC(=N)NCC[C@H](CO)N[C@@H](C)c1ccc(-n2cc3cc(-c4cc(CCC[C@H](C)N)cc(Cl)c4F)[nH]c3nc2=O)cc1F [Compound 177] | ≤ 16 | ≤ 16
CC(=N)NCC[C@@H]1CCC[C@@H](c2ccc(-n3cc4cc(-c5cc(CCC[C@H](C)N)cc(Cl)c5F)[nH]c4nc3=O)cc2)N1Cc1cocn1 [Compound 278] | ≤ 16 | ≤ 16
C=C[C@@H](CCNC(=N)CF)NCc1ccc(-n2cc3cc(-c4cc(CCC[C@@H](N)C(F)(F)F)cc(Cl)c4F)[nH]c3nc2=O)cc1 [Compound 43] | ≤ 16 | ≤ 16
CSc1cc(-n2cc3cc(-c4cc(CCC[C@@H](N)CF)cc(C(F)(F)F)c4F)[nH]c3nc2=O)ccc1[C@@H]1CCC[C@@H](CCNC(C)=N)N1 [Compound 255] | ≤ 16 | ≤ 16
C=C[C@H](N)CCCc1cc(Cl)c(F)c(-c2cc3cn(-c4ccc([C@@H]5CCC[C@@H](CCNC(C)=N)N5CCCF)cc4)c(=O)nc3[nH]2)c1 [Compound 343] | ≤ 16 | ≤ 16
C=C[C@H](N)CCCc1cc(Cl)c(F)c(-c2cc3cn(-c4ccc(CN[C@@H](CO)CCNC(C)=N)cc4)c(=O)nc3[nH]2)c1 [Compound 83] | ≤ 16 | ≤ 16
CC(=N)NCC[C@@H]1CCC[C@@H](c2ccc(-n3cc4cc(-c5cc(CCC[C@@H](N)C6CC6)cc(C(F)(F)F)c5)[nH]c4nc3=O)cc2)N1CCCF [Compound 330] | ≤ 16 | ≤ 16
C=C[C@@H](CCNC(C)=N)NCc1ccc(-n2cc3cc(-c4cc(CCC(F)(F)CN)cc(Cl)c4F)[nH]c3nc2=O)cc1 [Compound 105] | ≤ 16 | ≤ 16
CC(=N)NCC[C@@H]1CCC[C@@H](c2ccc(-n3cc4cc(-c5cc(CCC[C@H](C)N)cc(Cl)c5F)[nH]c4nc3=O)cc2)N1C[C@@H](C)CO [Compound 365] | ≤ 16 | ≤ 16

Results, then the compound that gave them:

MIC [1] [µg/mL] | MIC [2] [µg/mL] | Structure (SMILES)
≤ 16 | ≤ 16 | COC[C@H](N)CCCc1cc(OC(F)(F)F)c(F)c(-c2cc3cn(-c4ccc(CN[C@H](CCNC(C)=N)C5CC5)cc4)c(=O)nc3[nH]2)c1 [Compound 223]
≤ 16 | ≤ 16 | C=C[C@H](N)CCCc1cc(Cl)c(F)c(-c2cc3cn(-c4cc(F)c([C@@H]5CCC[C@@H](CCNC(C)=N)N5)c(F)c4)c(=O)nc3[nH]2)c1 [Compound 246]
≤ 16 | ≤ 16 | C[C@H](NCCCNC(=N)CF)c1ccc(-n2cc3cc(-c4cc(CCC[C@@H](N)CO)cc(Cl)c4F)[nH]c3nc2=O)cc1F [Compound 125]
≤ 16 | ≤ 16 | C=C[C@H](N)CCCc1cc(Cl)c(F)c(-c2cc3cn(-c4ccc([C@@H]5CCC[C@@H](CCNC(=N)C(Cl)(Cl)Cl)N5)c(F)c4)c(=O)nc3[nH]2)c1 [Compound 185]
≤ 16 | ≤ 16 | CC(=N)N[C@@H](C)C[C@@H]1CCC[C@@H](c2ccc(-n3cc4cc(-c5cc(CCC[C@@H](N)C6CC6)cc(Cl)c5F)[nH]c4nc3=O)cc2)N1 [Compound 256]
≤ 16 | ≤ 16 | CC(=N)NCC[C@@H]1CCC[C@@H](c2c(F)cc(-n3cc4cc(-c5cc(CCC[C@@H](N)C6CC6)cc(Cl)c5F)[nH]c4nc3=O)cc2F)N1 [Compound 247]
≤ 16 | ≤ 16 | C=C[C@@H](N)CCCc1cc(Cl)c(F)c(-c2cc3cn(-c4ccc(CNCCCNC(C)=N)c(F)c4)c(=O)nc3[nH]2)c1 [Compound 70]
≤ 16 | ≤ 16 | N=C(CF)NCC[C@@H]1CCC[C@@H](c2ccc(-n3cc4cc(-c5cc(CCC[C@@H](N)C6CC6)cc(Cl)c5F)[nH]c4nc3=O)cc2)N1 [Compound 86]
≤ 16 | ≤ 16 | CC(=N)NCC[C@@H]1CCC[C@@H](c2ccc(-n3cc4cc(-c5cc(CCCC(C)(C)N)cc(Cl)c5F)[nH]c4nc3=O)cc2)N1 [Compound 7]
≤ 16 | ≤ 16 | CC(=N)NCCCN[C@@H](C)c1ccc(-n2cc3cc(-c4cc(CCC[C@@H](N)CF)cc(Cl)c4F)[nH]c3nc2=O)cc1F [Compound 107]
≤ 16 | ≤ 16 | C=C[C@H](N)CCCc1cc(Cl)c(F)c(-c2cc3cn(-c4ccc(CN[C@H](CCNC(C)=N)C5CC5)cc4)c(=O)nc3[nH]2)c1 [Compound 220]
≤ 16 | ≤ 16 | CC(=N)NCC[C@@H]1CCC[C@@H](c2ccc(-n3cc4cc(-c5cc(CCC[C@H](C)N)cc(C(F)(F)F)c5)[nH]c4nc3=O)cc2F)N1CCCF [Compound 328]
≤ 16 | ≤ 16 | N=C(CF)NCC[C@H](CO)NCc1ccc(-n2cc3cc(-c4cc(CCC[C@@H](N)CO)cc(Cl)c4F)[nH]c3nc2=O)cc1 [Compound 84]
≤ 16 | ≤ 16 | COC[C@H](N)CCCc1cc(-c2cc3cn(-c4ccc([C@@H]5CCC[C@@H](C[C@@H](C)NC(C)=N)N5)cc4)c(=O)nc3[nH]2)c(F)c(C(F)(F)F)c1 [Compound 339]
≤ 16 | ≤ 16 | C=CC(CCNC(=N)CF)NCc1ccc(-n2cc3cc(-c4cc(CCCC(C)(C)N)cc(Cl)c4F)[nH]c3nc2=O)cc1 (stereo not shown) [Compound 22]
